In publication PMC3914206:

What was measured:
panel of 442 kinases [1] = target: T1, panel of 442 kinases (Homo sapiens, UniProt Q9HBH9); assay type: binding; settings: Compound Concentration 10 µM
T1 construct: purchased KINOMEscan
Source text: (§1) We assessed the selectivity of members of this scaffold using the KINOMEscan methodology across a near comprehensive panel of 442 kinases [[18,27]].

panel of 442 kinases [2] = target: T2, panel of 442 kinases (Homo sapiens, UniProt O95835); assay type: binding; settings: Compound Concentration 10 µM
T2 construct: purchased KINOMEscan
T2 sequence (O95835 1-1130): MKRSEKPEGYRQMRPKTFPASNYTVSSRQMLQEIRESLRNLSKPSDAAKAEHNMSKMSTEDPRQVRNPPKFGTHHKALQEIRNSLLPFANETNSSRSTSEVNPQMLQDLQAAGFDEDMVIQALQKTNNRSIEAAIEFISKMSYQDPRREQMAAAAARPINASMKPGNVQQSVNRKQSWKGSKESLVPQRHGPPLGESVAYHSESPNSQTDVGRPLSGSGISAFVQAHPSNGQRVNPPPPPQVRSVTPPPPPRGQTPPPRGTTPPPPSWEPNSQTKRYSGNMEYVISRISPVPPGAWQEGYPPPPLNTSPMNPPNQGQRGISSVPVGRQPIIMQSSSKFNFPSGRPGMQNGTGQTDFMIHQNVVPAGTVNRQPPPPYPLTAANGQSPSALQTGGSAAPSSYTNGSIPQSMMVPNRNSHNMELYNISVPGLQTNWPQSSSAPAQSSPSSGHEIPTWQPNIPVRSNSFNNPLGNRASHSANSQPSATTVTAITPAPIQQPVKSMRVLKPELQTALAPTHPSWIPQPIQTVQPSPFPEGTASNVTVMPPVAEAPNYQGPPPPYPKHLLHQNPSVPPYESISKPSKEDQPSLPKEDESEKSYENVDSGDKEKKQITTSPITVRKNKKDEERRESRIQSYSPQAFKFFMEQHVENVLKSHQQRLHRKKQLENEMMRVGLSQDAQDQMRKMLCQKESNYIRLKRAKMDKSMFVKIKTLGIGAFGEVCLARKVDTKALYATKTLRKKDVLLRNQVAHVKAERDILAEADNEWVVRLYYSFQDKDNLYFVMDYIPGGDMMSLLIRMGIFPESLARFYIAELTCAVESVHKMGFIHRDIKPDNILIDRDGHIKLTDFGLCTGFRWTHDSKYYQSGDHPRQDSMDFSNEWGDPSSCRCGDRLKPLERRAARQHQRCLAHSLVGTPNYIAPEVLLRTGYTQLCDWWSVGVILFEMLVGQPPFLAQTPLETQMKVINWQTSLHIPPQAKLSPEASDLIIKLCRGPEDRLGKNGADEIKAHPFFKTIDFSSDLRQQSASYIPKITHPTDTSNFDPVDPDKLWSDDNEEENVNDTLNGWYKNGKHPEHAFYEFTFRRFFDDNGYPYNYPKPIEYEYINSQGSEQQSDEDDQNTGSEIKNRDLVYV
Source text: as §1

T1 sequence (Q9HBH9 whole entry): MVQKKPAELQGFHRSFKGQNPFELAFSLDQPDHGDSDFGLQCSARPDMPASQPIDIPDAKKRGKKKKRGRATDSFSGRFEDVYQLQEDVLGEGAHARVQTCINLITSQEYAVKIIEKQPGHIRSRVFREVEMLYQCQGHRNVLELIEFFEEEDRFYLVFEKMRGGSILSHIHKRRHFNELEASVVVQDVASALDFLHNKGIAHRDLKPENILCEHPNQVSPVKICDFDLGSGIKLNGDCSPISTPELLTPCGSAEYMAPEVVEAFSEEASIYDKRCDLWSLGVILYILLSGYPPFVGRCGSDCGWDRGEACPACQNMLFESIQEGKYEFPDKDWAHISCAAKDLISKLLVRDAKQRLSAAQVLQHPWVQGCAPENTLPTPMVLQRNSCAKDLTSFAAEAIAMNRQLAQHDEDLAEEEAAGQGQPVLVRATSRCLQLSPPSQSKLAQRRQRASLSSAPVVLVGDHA

Row | Structure (SMILES) | KINOMEscan: MKNK2 (panel of 442 kinases [1]) | KINOMEscan: LATS1 (panel of 442 kinases [2])
1 | COc1cc(C(=O)N2CCC(N3CCN(C)CC3)CC2)ccc1Nc1ncc2c(n1)N(C1CCCC1)c1ccccc1C(=O)N2C [Compound 25, 11-cyclopentyl-2-((2-methoxy-4-(4-(4-methylpiperazin-1-yl)piperidine-1-carbonyl)phenyl)amino)-5-methyl-5H-benzo[e]pyrimido[5,4-b][1,4]diazepin-6(11H)-one] | 100 | 100
2 | COc1cc(C(=O)N2CCC(N3CCN(C)CC3)CC2)ccc1Nc1ncc2c(n1)N1CCc3cccc(c31)C(=O)N2C [Compound 24] | 8.6 | –
3 | COc1cc(C(=O)N2CCC(N3CCN(C)CC3)CC2)ccc1Nc1ncc2c(n1)N(C)c1ccccc1C(=O)N2C [15 (LRRK2-IN-1)] | 1.2 | 100
4 | CCOc1cc(C(=O)N2CCC(N3CCN(C)CC3)CC2)ccc1Nc1ncc2c(n1)N(C1CCCC1)c1ccccc1C(=O)N2C [Compound 26] | 100 | 100
